pIC50: −log10 of the molar value.
What was measured:
MAPK/MEK/B-raf = assay: SelectScreen CellSensor pathway inhibition, MAPK/MEK/B-raf; assay type: cell-based; settings: Homo sapiens, A-375; AP1-bla A375, no stimulus (constitutively activated)
Protocol: (§1) Inhibition of various cellular pathways known to be involved in malignancy was tested using the SelectScreen Cell-based Pathway Profiling GeneBLAzer™ cell signaling pathway specific CellSensor™ cell lines ((Thermo Fisher). The assay is based on a beta-lactamase reporter activity which is modulated and can be measured quantitatively and selectively with the LiveBLAzer™-FRET B/G Loading Substrate. SelectScreen Cell-Based Pathway Profiling Service uses XLfit from IDBS. The dose response curve is curve fit to model number 205 (sigmoidal dose-response model). Custom logic was built by Thermo Fisher for the data analysis tool to address the different compound characteristics that can be observed with functional assays.
MAPK/MEK/B-raf—AP1-bla A375—Inhibitor Screen, Constitutively Activated
AP1-bla A375 cells are thawed and resuspended in Assay Media (OPTI-MEM, 0.5% dialyzed FBS, 0.1 mM NEAA, 1 mM Sodium Pyruvate, 100 U/mL/[…] Pen/Strep) to a concentration of 312,500 cells/mL. 4 μL of a 10×serial dilution of Rafi Kinase Inhibitor (control inhibitor starting concentration, 10,000 nM) or compounds are added to appropriate wells of a TC-Treated assay plate. 32 μL of cell suspension (10,000 cells) is added to the wells. 4 μL of Assay Media is added to all wells to bring the final assay volume to 40 μL. […] The plate is read on a fluorescence plate reader.

LoVo = assay: CellTiter-Glo cell viability, LoVo; assay type: cell-based; settings: Homo sapiens; LoVo cells, 72 h with compound
Protocol: (§2) Antitumor activity against a panel of cancer cell lines Antitumor activity of the compounds was assessed by using the CellTiter-Glow® Luminescent Cell Viability assay (Promega #G7572) according to the manufacturer's instructions. The compounds were tested at 5 or 6 concentrations in 1:2 dilution increments (highest concentration 10 µM) in triplicate well conditions.
(§3) Tumor cells were grown at 37° C. in a humidified atmosphere with 5% CO2 in RPMI 1640 or DMEM medium, supplemented with 10% (v/v) fetal calf serum and 50 μg/ml gentamicin for up to 20 passages, and were passaged once or twice weekly. Cells were harvested using TrypLE or PBS buffer containing 1 mM EDTA, and the percentage of viable cells is determined using a cell counter.
Cells were harvested from exponential phase cultures, counted and plated in 96 well flat-bottom microtiter plates at a cell density depending on the cell line's growth rate (4,000-20,000 cells/well depending on the cell line's growth rate) in RPMI 1640 or DMEM medium supplemented with 10% (v/v) fetal calf serum and 50 μg/ml gentamicin (140 μl/well). Cultures were incubated at 37° C. and 5% CO2 in a humidified atmosphere. […] Viability of cells was quantified by the CellTiter-Glow® Luminescent Cell Viability assay (Promega #G7572). Luminescence was measured with the microplate luminometer (En Vision Perkin Elmer). […]

[1] = Tolerability in the A2058 xenograft study; assay type: in vivo, Balb-c/nude mouse; settings: peritumoral QOD; resolved after the treatment was stopped
Protocol: Each Balb-c/nude mouse was inoculated subcutaneously at the right flank with A2058 melanoma tumor cells (5×10^6+Matrigel) in 0.2 ml of PBS for tumor development. 10 animals per group were randomized when the average tumor volume reached 74 mm^3. Test compounds were prepared as DMSO stocks and diluted in the injection vehicle before administration. The treatment was administered every other day (QOD) as a peritumoral injection. Vehicle composition was 4% DMSO, 5% ethanol, 20% PEG200, 71% saline. Dosing volume for all groups: 5 mL/kg.
Body weight and clinical signs were monitored throughout the study.

A375 = assay: Caspase-Glo 3/7 apoptosis assay, A375; assay type: cell-based; settings: A375 cells, 10 μM, 24 h
Protocol: (§4) Apoptosis activity was evaluated using Caspase-Glo 3/7 Assay kit (Promega-G8091) according to the manufacturer's instructions. Cells were grown as above and harvested from exponential phase cultures, counted and plated in 96 black well flat-bottom microtiter plates at a cell density depending on the cell line's growth rate (3,000-10,000 cells/well depending on the cell line's growth rate). Following an overnight incubation, compounds were added to the cell plates at various concentrations (highest at […]) with the DMSO concentration maintained at 0.1% for a 24 h period treatment. 100 μL of Caspase-Glo 3/7 Reagent was added to each well of 96-well plate containing 100 μL culture medium, and after 30 min at room temperature, luminescence was measured with the microplate luminometer (EnVision Perkin Elmer). The induced relative Caspase 3/7 activity of the tested compounds was determined by the following formula: Relative Caspase 3/7 activity (fold increase)=(RLU compound−RLU blank)/(RLU control−RLU blank).

A-673 = assay: CellTiter-Glo cell viability, A-673; assay type: cell-based; settings: Homo sapiens, A673; A-673 cells, 72 h with compound
Protocol: as §2, §3
Cells were harvested from exponential phase cultures, counted and plated in 96 well flat-bottom microtiter plates at a cell density depending on the cell line's growth rate (4,000-20,000 cells/well depending on the cell line's growth rate) in RPMI 1640 or DMEM medium supplemented with 10% (v/v) fetal calf serum and 50 μg/ml gentamicin (140 μl/well). Cultures were incubated at 37° C. and 5% CO2 in a humidified atmosphere. After 24 h, 10 μl of test compounds or control medium are added, and left on the cells for another 72 h. Compounds were serially diluted in DMSO, transferred in cell culture medium, and added to the assay plates. The DMSO concentration was kept constant at <0.2% v/v across the assay plate. Viability of cells was quantified by the CellTiter-Glow® Luminescent Cell Viability assay (Promega #G7572). Luminescence was measured with the microplate luminometer (En Vision Perkin Elmer).
Sigmoidal concentration-response curves were fitted to the data points (test-versus-control, T/C values) obtained for each tumor model using Graph Pad prism 5.02 software. IC50 values are reported as absolute IC50 values, being the concentration of test compound at the intersection of the concentration-response curves with T/C=50%.

[2] = test system: Toll-like Receptor (TLR4); assay: SelectScreen CellSensor pathway inhibition, Toll-like Receptor (TLR4); assay type: cell-based; settings: Homo sapiens; NFkB-bla THP-1, stimulus LPS
Protocol: as §1
Toll-like Receptor (TLR4)—NFKB-bla THP-1—Inhibitor Screen, Activated by LPS
NFKB-bla THP-1 cells are thawed and resuspended in Assay Media (RPMI, 0.5% dialyzed FBS, 0.1 mM NEAA, 1 mM Sodium Pyruvate, 100 U/mL/[…] Pen/Strep) to a concentration of 625,000 cells/mL. 32 μL of cell suspension is added to each well of a 384-well TC-Treated assay plate. Cells in Assay Media are incubated for 16-24 hours in the plate at 37° C./5% CO2 in a humidified incubator. […] The plate is read on a fluorescence plate reader.

MDA-MB-468 = assay: Caspase-Glo 3/7 apoptosis assay, MDA-MB-468; assay type: cell-based; settings: MDA-MB-468 cells, 10 μM, 24 h
Protocol: as §4

pIC50 (MAPK/MEK/B-raf): 5.57
pIC50 (LoVo): 6.04
pIC50 [2]: 6.25
Structure (SMILES): COc1ccc2c(=O)c(-c3ccc(CCCC[P+](c4ccccc4)(c4ccccc4)c4ccccc4)cc3)coc2c1OC.[Br-] [SND470, (4-(4-(7,8-Dimethoxy-4-oxo-4H-chromen-3-yl)phenyl)butyl)triphenylphosphonium bromide]
finding at the site of the injection [1]: slight scabbing at the site of the injection
Fold activation of Caspase 3/7 (A375): 13.98 Fold
pIC50 (A-673): 6.70
Fold activation of Caspase 3/7 (MDA-MB-468): 3.15 Fold

Source: patent US20260028364A1, “CATIONIC CHROMENONES AND THEIR USE IN ONCOLOGY” (FLORATEK PHARMA S.A., priority 2022, published 2026)
